Experimental data published in ChEMBL document CHEMBL1201862, “PubChem BioAssay data set” (2004).
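Each compound was tested at five concentrations against cells in 96-well plates for 48 hours. Here, GI50 denotes the concentration required for 50% inhibition of growth.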 The source made the active and inactive calls. No stated cut-off is given here; in the data, active = GI50 up to about 1.1 µM and inactive = higher.

Experiments:
Assay in all cases: growth of human tumour cells (NCI), 48 h
SK-MEL-2 = system: SK-MEL-2
HOP-92 = system: HOP-92
A498 = system: A498
KM12 = system: KM12
CCRF-CEM = system: CCRF-CEM
SF-268 = system: SF-268
OVCAR-4 = system: OVCAR-4
HL-60 = system: HL-60
NCI-H460 = system: NCI-H460
UO-31 = system: UO-31
MOLT-4 = system: MOLT-4
ACHN = system: ACHN
M14 = system: M14
SF-295 = system: SF-295
EKVX = system: EKVX

| Compound | GI50 (SK-MEL-2) | GI50 (HOP-92) | GI50 (A498) | GI50 (KM12) | GI50 (CCRF-CEM) | GI50 (SF-268) | GI50 (OVCAR-4) | GI50 (HL-60) | GI50 (NCI-H460) | GI50 (UO-31) | GI50 (MOLT-4) | GI50 (ACHN) | GI50 (M14) | GI50 (SF-295) | GI50 (EKVX) |
| --- | --- | --- | --- | --- | --- | --- | --- | --- | --- | --- | --- | --- | --- | --- | --- |
| O=C(O)CSc1nnc(COc2ccccc2)n1-c1ccccc1 | > 100 µM (inactive) | > 100 µM (inactive) | > 100 µM (inactive) | > 100 µM (inactive) | > 100 µM (inactive) | > 100 µM (inactive) | > 100 µM (inactive) | > 100 µM (inactive) | > 100 µM (inactive) | > 100 µM (inactive) | > 100 µM (inactive) | > 100 µM (inactive) | > 100 µM (inactive) | > 100 µM (inactive) | – |
| Cc1ccc(NC(=O)CC2SC(=N)NC2=O)cc1C (stereo not drawn) | > 100 µM (inactive) | > 100 µM (inactive) | – | > 100 µM (inactive) | – | > 100 µM (inactive) | > 100 µM (inactive) | > 100 µM (inactive) | > 100 µM (inactive) | > 100 µM (inactive) | > 100 µM (inactive) | > 100 µM (inactive) | > 100 µM (inactive) | > 100 µM (inactive) | – |
| COc1ccc2[nH]c3c(c2c1)[C@H](c1ccccc1)C[C@@H]1C(=O)N(c2ccccc2)C(=O)[C@H]31 | 55.1 µM (inactive) | 37.3 µM (inactive) | 21.4 µM (inactive) | 17.5 µM (inactive) | 30.9 µM (inactive) | > 100 µM (inactive) | 16.7 µM (inactive) | – | 22.4 µM (inactive) | 22.9 µM (inactive) | 15.1 µM (inactive) | 22.1 µM (inactive) | 42.3 µM (inactive) | 48.4 µM (inactive) | 89.1 µM (inactive) |
| O=C(CO[N+](=O)[O-])OC/C=C/c1ccccc1 | > 100 µM (inactive) | > 100 µM (inactive) | – | > 100 µM (inactive) | > 100 µM (inactive) | > 100 µM (inactive) | – | 22.1 µM (inactive) | > 100 µM (inactive) | > 100 µM (inactive) | > 100 µM (inactive) | > 100 µM (inactive) | > 100 µM (inactive) | > 100 µM (inactive) | > 100 µM (inactive) |
| CN(C)/C=N/c1nc2ncn(CCOC(=O)c3ccccc3)c2c(=O)[nH]1 | > 100 µM (inactive) | > 100 µM (inactive) | > 100 µM (inactive) | > 100 µM (inactive) | > 100 µM (inactive) | > 100 µM (inactive) | > 100 µM (inactive) | > 100 µM (inactive) | > 100 µM (inactive) | > 100 µM (inactive) | – | > 100 µM (inactive) | > 100 µM (inactive) | > 100 µM (inactive) | > 100 µM (inactive) |
| Brc1ccc(N2C[N+](c3ccc(Br)cc3)=NC(c3ccccc3)=N2)cc1 | 17 µM (inactive) | 18.7 µM (inactive) | 18.3 µM (inactive) | 14.9 µM (inactive) | – | 18.3 µM (inactive) | 19.5 µM (inactive) | 17.1 µM (inactive) | 13.6 µM (inactive) | 14.5 µM (inactive) | 14.2 µM (inactive) | 13.6 µM (inactive) | 13.4 µM (inactive) | 15.5 µM (inactive) | 16.7 µM (inactive) |
| N#CC(C#N)=c1[nH]c2cccc3c2-c2c(cccc2c3=C(C#N)C#N)[nH]1 | – | > 100 µM (inactive) | > 100 µM (inactive) | > 100 µM (inactive) | 45.1 µM (inactive) | > 100 µM (inactive) | > 100 µM (inactive) | > 100 µM (inactive) | > 100 µM (inactive) | > 100 µM (inactive) | > 100 µM (inactive) | – | > 100 µM (inactive) | > 100 µM (inactive) | > 100 µM (inactive) |
| O=C(c1ccc(Cl)cc1Cl)C1[C@H]2C(=O)N(c3ccc(Cc4ccc(N5C(=O)[C@@H]6ON(c7ccccc7)C(C(=O)c7ccc(Cl)cc7Cl)[C@@H]6C5=O)cc4)cc3)C(=O)[C@H]2ON1c1ccccc1 (stereo partly drawn) | > 50 µM (inactive) | – | > 50 µM (inactive) | > 50 µM (inactive) | > 50 µM (inactive) | > 50 µM (inactive) | > 50 µM (inactive) | > 50 µM (inactive) | > 50 µM (inactive) | > 50 µM (inactive) | > 50 µM (inactive) | > 50 µM (inactive) | > 50 µM (inactive) | > 50 µM (inactive) | – |
| COc1ccc(CCC2c3cc(OC)c(OC)cc3CCN2C)cc1OC (stereo not drawn) | > 100 µM (inactive) | 46 µM (inactive) | – | > 100 µM (inactive) | > 100 µM (inactive) | > 100 µM (inactive) | > 100 µM (inactive) | > 100 µM (inactive) | > 100 µM (inactive) | > 100 µM (inactive) | > 100 µM (inactive) | > 100 µM (inactive) | > 100 µM (inactive) | > 100 µM (inactive) | > 100 µM (inactive) |
| CC1C=C(CCCCCCCCCCCC[C@@H](O)[C@@H]2CC[C@@H]([C@@H]3CC[C@@H](C(O)CCCCCCCCCCCCC4=C[C@H](C)OC4=O)O3)O2)C(=O)O1 (stereo partly drawn) | > 100 µM (inactive) | 21.9 µM (inactive) | 75.7 µM (inactive) | > 68.1 µM (inactive) | 5.36 µM (inactive) | > 47.5 µM (inactive) | – | 5.41 µM (inactive) | 0.881 µM (active) | 6.67 µM (inactive) | 11.6 µM (inactive) | > 100 µM (inactive) | > 100 µM (inactive) | 0.078 µM (active) | 1.44 µM (inactive) |
| COC(=O)CC1C[C@H](C#N)N(C(=O)c2ccccc2)C[C@@H]1CC[N+](=O)[O-] (stereo partly drawn) | 0.0546 µM (active) | > 100 µM (inactive) | > 100 µM (inactive) | > 100 µM (inactive) | > 100 µM (inactive) | > 100 µM (inactive) | > 100 µM (inactive) | > 100 µM (inactive) | > 100 µM (inactive) | > 100 µM (inactive) | > 100 µM (inactive) | > 100 µM (inactive) | > 100 µM (inactive) | > 100 µM (inactive) | > 100 µM (inactive) |
| CC1CC[C@@]23CCC4(C)[C@@](C=CC5[C@@]6(C)CCC(=O)C(C)(C)C6CC[C@]54C)(OC2=O)[C@@H]3[C@H]1C (stereo partly drawn) | – | 15.9 µM (inactive) | 20.6 µM (inactive) | 12 µM (inactive) | 5.35 µM (inactive) | 50.4 µM (inactive) | 29.4 µM (inactive) | 1.6 µM (inactive) | 13.2 µM (inactive) | 8.02 µM (inactive) | 7.29 µM (inactive) | 12 µM (inactive) | 21.7 µM (inactive) | 18.8 µM (inactive) | 32.1 µM (inactive) |
| COc1cccc(/C=C/c2cc(OC)c(OC)c(OC)c2)c1 | 62.7 µM (inactive) | > 100 µM (inactive) | 57 µM (inactive) | 66.4 µM (inactive) | 33.7 µM (inactive) | 68.9 µM (inactive) | – | – | 43.4 µM (inactive) | 21.2 µM (inactive) | 36.6 µM (inactive) | 87.5 µM (inactive) | 23.8 µM (inactive) | – | 36.2 µM (inactive) |
| COCC(O)Cn1ccnc1[N+](=O)[O-] (stereo not drawn) [MISONIDAZOLE] | > 100 µM (inactive) | – | – | > 100 µM (inactive) | > 100 µM (inactive) | > 100 µM (inactive) | – | > 100 µM (inactive) | > 100 µM (inactive) | > 100 µM (inactive) | > 100 µM (inactive) | > 100 µM (inactive) | > 100 µM (inactive) | > 100 µM (inactive) | > 100 µM (inactive) |
